The experiment has as its target T1, HIV-1 Reverse Transcriptase (Human immunodeficiency virus type 1 group M subtype B, UniProt P03366).
T1 construct: Lys101, Val179 (p66 subunit) and Glu138 (p51 subunit); purchased Roche
The experiment in a line: HIV-1 RT inhibitory action, colorimetric photometric immunoassay kit (Roche). The class given is biochemical. The note with it: for IC50: IC50 (μM), 45 min pre-incubation, 2 h at 37 °C. As for the experimental part:
For the evaluation of the HIV-1 Reverse Transcriptase activity, the colorimetric photometric immunoassay kit provided by Roche was used. A two hours incubation at 37 °C was performed, as previously described in our paper following a pre-incubation step in which reverse transcriptase was incubated in the presence of the potential inhibitor for 45 min at room temperature before the addition of the substrate. The total-activity was measured in the absence of inhibitors (compounds) with the addition of an equal volume of the solvent of the compounds to the reaction mixture. For the determination of enzyme activity, incubation in the absence of enzyme was used as blank. Different inhibitor concentrations were added for the calculation of IC50 values.

Each structure is given as a SMILES string.

In general, inhibition refers to the share of the control response that was lost under treatment. Higher therefore signals strong suppression. By IC50 is commonly meant the concentration that inhibits the measured activity by half. High values mean lower potency, low ones higher potency. As for `CCOc1ccc2nc(N3C(=O)CSC3c3ccc(F)cc3)sc2c1` (stereo not shown) [Compound 24, 3-(6-Ethoxy-benzo[d]thiazol-2-yl)-2-(4-fluorophenyl)thiazolidin-4-one], the inhibition at 4 µM came out at 36% and the IC50 was > 4 µM.

In turn, `O=C1CSC(c2c(Cl)cccc2Cl)N1c1nc2ccc(OC(F)(F)F)cc2s1` (stereo not shown) [Compound 29, 3-(6-Trifluoromethoxy-benzo[d]thiazol-2-yl)-2-(2,6-dichlorophenyl) thiazolidin-4-one] came in with an inhibition at 4 µM of 49% and an IC50 of 4.28 µM.

Turning to `O=C1CSC(c2ccc(F)cc2)N1c1nc2ccc(Cl)cc2s1` (stereo not shown) [Compound 8, 3-(6-Chloro-benzo[d]thiazol-2-yl)-2-(4-fluorophenyl)thiazolidin-4-one], at 4 µM the inhibition was 83% and the IC50 amounted to 0.26 µM.

In turn, `CCOc1ccc2nc(N3C(=O)CSC3c3ccc(O)cc3)sc2c1` (stereo not shown) [Compound 28, 3-(6-Ethoxy-benzo[d]thiazol-2-yl)-2-(4-hydroxyphenyl)thiazolidin-4-one] yielded an inhibition at 4 µM of 62% and a half-inhibitory concentration (IC50) of 2 µM.

Molecule `COc1ccc(C2SCC(=O)N2c2nc3c(OC)cccc3s2)cc1` (stereo not shown) [Compound 18, 3-(4-Methoxy-benzo[d]thiazol-2-yl)-2-(4-methoxyphenyl)thiazolidin-4-one] showed an inhibition at 4 µM of 72% and an IC50 of 2.69 µM.

In turn, `CCOc1ccc2nc(N3C(=O)CSC3c3ccc(Cl)cc3)sc2c1` (stereo not shown) [Compound 26, 3-(6-Ethoxy-benzo[d]thiazol-2-yl)-2-(4-chlorophenyl)thiazolidin-4-one] yielded an inhibition at 4 µM of 73% and an IC50 of 2.48 µM.

`COc1cccc2sc(N3C(=O)CSC3c3ccc(O)cc3)nc12` (stereo not shown) [Compound 19, 3-(4-Methoxy-benzo[d]thiazol-2-yl)-2-(4-hydroxyphenyl)thiazolidin-4-one] came in with an inhibition at 4 µM of 71% and an IC50 of 2.62 µM.

With `O=C1CSC(c2ccc(Cl)cc2)N1c1nc2c(Cl)cccc2s1` (stereo not shown) [Compound 12, 3-(4-Chloro-benzo[d]thiazol-2-yl)-2-(4-chlorophenyl)thiazolidin-4-one], the inhibition at 4 µM was 50% and the IC50 amounted to 4 µM.

Consider `COc1ccc(C2SCC(=O)N2c2nc3ccc(F)cc3s2)cc1` (stereo not shown) [Compound 6, 3-(6-Fluoro-benzo[d]thiazol-2-yl)-2-(4-methoxyphenyl)thiazolidin-4-one], for which testing at 4 µM gave an inhibition of 35% and the IC50 was > 4 µM.

`COc1ccc(C2SCC(=O)N2c2nc3c(Cl)cccc3s2)cc1` (stereo not shown) [Compound 13, 3-(4-Chloro-benzo[d]thiazol-2-yl)-2-(4-methoxyphenyl)thiazolidin-4-one] returned an inhibition at 4 µM of 65% and an IC50 of 1.99 µM.

`O=C1CSC(c2ccc(O)cc2)N1c1nc2ccc(F)cc2s1` (stereo not shown) [Compound 7, 3-(6-Fluoro-benzo[d]thiazol-2-yl)-2-(4-hydroxyphenyl)thiazolidin-4-one] came in with an inhibition at 4 µM of 50% and an IC50 of 4 µM.

Turning to `O=C1CSC(c2ccc([N+](=O)[O-])cc2)N1c1nc2c(Cl)cccc2s1` (stereo not shown) [Compound 11, 3-(4-Chloro-benzo[d]thiazol-2-yl)-2-(4-nitrophenyl)thiazolidin-4-one], the inhibition at 4 µM was 40% and the IC50 was > 4 µM.

For `O=C1CSC(c2ccc(F)cc2)N1c1nc2ccc(F)cc2s1` (stereo not shown) [Compound 3, 3-(6-Fluoro-benzo[d]thiazol-2-yl)-2-(4-fluorophenyl)thiazolidin-4-one], 4 µM produced 72% inhibition and the IC50 was found to be 0.15 µM.

Take `COc1cccc2sc(N3C(=O)CSC3c3ccc(Cl)cc3)nc12` (stereo not shown) [Compound 17, 3-(4-Methoxy-benzo[d]thiazol-2-yl)-2-(4-chlorophenyl)thiazolidin-4-one]: the inhibition at 4 µM came out at 67% and the IC50 was 2.6 µM.

Consider `O=C1CSC(c2ccc(Cl)cc2)N1c1nc2ccc(F)cc2s1` (stereo not shown) [Compound 5, 3-(6-Fluoro-benzo[d]thiazol-2-yl)-2-(4-chlorophenyl)thiazolidin-4-one], for which testing at 4 µM gave an inhibition of 44% and the IC50 was > 4 µM.

Take `O=C1CSC(c2ccc(Cl)cc2)N1c1nc2ccc(OC(F)(F)F)cc2s1` (stereo not shown) [Compound 32, 3-(6-Trifluoromethoxy-benzo[d]thiazol-2-yl)-2-(4-chlorophenyl)thiazolidin-4-one]: at 4 µM the inhibition was 46% and the IC50 was > 4 µM.

On to `O=C1CSC(c2c(F)cccc2F)N1c1nc2cccc(Cl)c2s1` (stereo not shown) [Compound 1, 3-(7-Chloro-benzo[d]thiazol-2-yl)-2-(2,6-difluorophenyl)thiazolidin-4-one], for which at 4 µM the inhibition was 70% and the IC50 was found to be 0.21 µM.

Turning to `O=C1CSC(c2ccc([N+](=O)[O-])cc2)N1c1nc2ccc(F)cc2s1` (stereo not shown) [Compound 4, 3-(6-Fluoro-benzo[d]thiazol-2-yl)-2-(4-nitrophenyl)thiazolidin-4-one], the inhibition at 4 µM worked out at 54% and the midpoint of inhibition, the IC50, lay at 3.8 µM.

Molecule `COc1ccc2nc(N3C(=O)CSC3c3ccc([N+](=O)[O-])cc3)sc2c1` (stereo not shown) [Compound 21, 3-(6-Methoxy-benzo[d]thiazol-2-yl)-2-(4-nitrophenyl)thiazolidin-4-one] displayed an inhibition at 4 µM of 50% and an IC50 of 4 µM.

For the molecule `O=C1CSC(c2c(F)cccc2Cl)N1c1nc2cccc(Cl)c2s1` (stereo not shown) [Compound 2, 3-(7-Chloro-benzo[d]thiazol-2-yl)-2-(2-chloro-6-fluorophenyl)thiazolidin-4-one], testing at 4 µM gave an inhibition of 72% and half-maximal inhibition (IC50) required 0.0047 µM.

Consider `O=C1CSC(c2ccc(F)cc2)N1c1nc2c(Cl)cccc2s1` (stereo not shown) [Compound 10, 3-(4-Chloro-benzo[d]thiazol-2-yl)-2-(4-fluorophenyl)thiazolidin-4-one], for which the inhibition at 4 µM was 63% and the IC50 is 0.001 µM.

The molecule `COc1cccc2sc(N3C(=O)CSC3c3ccc([N+](=O)[O-])cc3)nc12` (stereo not shown) [Compound 16, 3-(4-Methoxy-benzo[d]thiazol-2-yl)-2-(4-nitrophenyl)thiazolidin-4-one] gave an inhibition at 4 µM of 68% and an IC50 of 2.2 µM.

With `O=C1CSC(c2ccc(O)cc2)N1c1nc2ccc(Cl)cc2s1` (stereo not shown) [Compound 9, 3-(6-Chloro-benzo[d]thiazol-2-yl)-2-(4-hydroxyphenyl)thiazolidin-4-one], testing at 4 µM gave an inhibition of 56% and the IC50 stood at 0.001 µM.

For the molecule `O=C1CSC(c2ccc([N+](=O)[O-])cc2)N1c1nc2ccc(OC(F)(F)F)cc2s1` (stereo not shown) [Compound 31, 3-(6-Trifluoromethoxy-benzo[d]thiazol-2-yl)-2-(4-nitrophenyl)thiazolidin-4-one], the inhibition at 4 µM turned out to be 46% and the IC50 was > 4 µM.

`O=C1CSC(c2ccc(O)cc2)N1c1nc2c(Cl)cccc2s1` (stereo not shown) [Compound 14, 3-(4-Chloro-benzo[d]thiazol-2-yl)-2-(4-hydroxyphenyl)thiazolidin-4-one] showed an inhibition at 4 µM of 83% and an IC50 of 0.01 µM.

On to `O=C1CSC(c2cccc(Cl)c2Cl)N1c1nc2ccc(OC(F)(F)F)cc2s1` (stereo not shown) [Compound 30, 3-(6-Trifluoromethoxy-benzo[d]thiazol-2-yl)-2-(2,3-dichlorophenyl) thiazolidin-4-one], for which at 4 µM the inhibition was 46% and the IC50 is > 4 µM.

`COc1cccc2sc(N3C(=O)CSC3c3ccc(F)cc3)nc12` (stereo not shown) [Compound 15, 3-(4-Methoxy-benzo[d]thiazol-2-yl)-2-(4-flurophenyl)thiazolidin-4-one] returned an inhibition at 4 µM of 69% and an IC50 of 2.08 µM.

`CCOc1ccc2nc(N3C(=O)CSC3c3ccc(OC)cc3)sc2c1` (stereo not shown) [Compound 27, 3-(6-Ethoxy-benzo[d]thiazol-2-yl)-2-(4-methoxyphenyl)thiazolidin-4-one] yielded an inhibition at 4 µM of 76% and an IC50 of 1.93 µM.

As to `CCOc1ccc2nc(N3C(=O)CSC3c3ccc([N+](=O)[O-])cc3)sc2c1` (stereo not shown) [Compound 25, 3-(6-Ethoxy-benzo[d]thiazol-2-yl)-2-(4-nitrophenyl)thiazolidin-4-one], the inhibition at 4 µM stood at 44% and the IC50 was > 4 µM.

`COc1ccc2nc(N3C(=O)CSC3c3ccc(F)cc3)sc2c1` (stereo not shown) [Compound 20, 3-(6-Methoxy-benzo[d]thiazol-2-yl)-2-(4-fluorophenyl)thiazolidin-4-one] gave an inhibition at 4 µM of 55% and an IC50 of 1.51 µM.

Turning to `COc1ccc(C2SCC(=O)N2c2nc3ccc(OC)cc3s2)cc1` (stereo not shown) [Compound 23, 3-(6-Methoxy-benzo[d]thiazol-2-yl)-2-(4-methoxyphenyl)thiazolidin-4-one], at 4 µM the inhibition was 73% and the IC50 was 2.39 µM.

Regarding `COc1ccc2nc(N3C(=O)CSC3c3ccc(Cl)cc3)sc2c1` (stereo not shown) [Compound 22, 3-(6-Methoxy-benzo[d]thiazol-2-yl)-2-(4-chlorophenyl)thiazolidin-4-one], the inhibition at 4 µM came to 72% and the IC50 amounted to 2.76 µM.
